Reference: patent US8303999B2, “Natural extract containing xanthohumol, method for the production thereof and products produced therefrom” (Ta-Xan AG, priority 2004, dated 2012)
≈ marks a conversion by molar mass, not a printed value. Where two headings read alike, the source gives them in different places.

Assay: solubility limit of XN in aqueous solution (water)
Format: physicochemical
Details: read-out: solubility limit of XN in typical aqueous solutions
Description: For producing roasted extract comprising XN a hot aqueous extract of the ground roasted products e.g. of barley, wheat, rye as well as the corresponding malts, coffee beans or cacao beans is prepared. A hop extract comprising XN is added thereto at the beginning of the heating period. The extraction of xanthohumol in the extractions of the roasted products leads to a XN content which is by far higher than the solubility limit of XN in typical aqueous solutions. This amounts to 1.3 mg/l of XN at a water temperature of 23° C. and to 1.1 mg/l of XN at a water temperature of 8° C.

solubility (water temperature of 8° C.): 1.1 µg/mL (≈ 3.1 µM)
solubility (water temperature of 23° C.): 1.3 µg/mL (≈ 3.67 µM)
SMILES: COc1cc(O)c(CC=C(C)C)c(O)c1C(=O)/C=C/c1ccc(O)cc1 [XN, xanthohumol]
